Calls of active or inactive are those of the source.
Key:
Cytochrome P450 3A4 = Cytochrome P450 3A4 (Homo sapiens, UniProt P08684);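 further: CYP3A4 tested as one member of a cytochrome P450 panel screen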
Cytochrome P450 2C9 = Cytochrome P450 2C9 (Homo sapiens, UniProt P11712)
Cytochrome P450 2D6 = Cytochrome P450 2D6 (Homo sapiens, UniProt P10635);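 further: CYP2D6 member of a cytochrome P450 panel assay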
[1] = viability of PTEN-deleted HCT116 cells – cell-based, HCT116 PTEN knockout, dose response (AID 1047); format: functional;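 further: HCT116 colon tumor cells with PTEN knocked out; cells exposed to compound for 60 hours before readout; potency for loss of cell viability measured by luminescence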
[2] = viability of HCT116 lacking mutant beta-catenin – cell-based, human colon tumor, dose response (AID 1045); format: functional;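 further: HCT116 colon tumor cells with beta catenin knocked out; cells exposed to compound for 60 hours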
[3] = target: T1, Corticotropin-releasing factor receptor 2/Corticotropin-releasing factor-binding protein (Homo sapiens, UniProt P24387+Q13324); test: activators of CRF receptor 2 with binding protein – uHTS hits, confirmation (AID 602473); format: functional; conditions: read-out: EC50_Mean
T1 sequence (Q13324 whole entry): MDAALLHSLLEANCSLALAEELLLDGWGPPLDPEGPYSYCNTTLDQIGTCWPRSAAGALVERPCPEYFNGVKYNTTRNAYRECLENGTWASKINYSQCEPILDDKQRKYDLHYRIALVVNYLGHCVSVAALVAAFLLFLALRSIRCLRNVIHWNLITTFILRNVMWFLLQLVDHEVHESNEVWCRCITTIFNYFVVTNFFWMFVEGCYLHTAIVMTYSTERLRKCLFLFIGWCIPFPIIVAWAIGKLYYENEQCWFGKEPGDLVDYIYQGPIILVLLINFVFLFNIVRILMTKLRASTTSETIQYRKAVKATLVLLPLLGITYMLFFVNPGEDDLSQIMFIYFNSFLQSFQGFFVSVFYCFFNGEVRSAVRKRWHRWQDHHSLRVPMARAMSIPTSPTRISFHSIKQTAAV
T1 sequence (P24387 whole entry): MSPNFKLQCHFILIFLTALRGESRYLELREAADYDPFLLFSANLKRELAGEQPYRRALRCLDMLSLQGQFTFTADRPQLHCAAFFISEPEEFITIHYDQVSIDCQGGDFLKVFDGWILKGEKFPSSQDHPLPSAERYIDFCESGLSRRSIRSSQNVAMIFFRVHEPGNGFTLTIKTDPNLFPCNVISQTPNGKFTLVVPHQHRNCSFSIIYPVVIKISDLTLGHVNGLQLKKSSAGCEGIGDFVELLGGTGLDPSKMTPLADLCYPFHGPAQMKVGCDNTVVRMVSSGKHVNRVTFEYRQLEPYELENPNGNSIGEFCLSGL

[4] = Luminescence Cell-Based Dose Retest to Confirm Inhibitors of Cancer Stem Cells. [Related pubchem assays (depositor defined):AID2717, AID2721]; format: functional; conditions: Homo sapiens
[5] = tested on: Streptococcus sp. 'group A'; test: Streptococcus pyogenes SK(-)GAS viability under kanamycin – luminescence, BacTiterGlo, confirmation, counter-screen for streptokinase expression inhibitor project, dose response (AID 1900); format: functional, organism-based
Streptokinase A = target: T2, Streptokinase A (Streptococcus pyogenes serotype M1, UniProt P10520); test: viability-normalized secreted streptokinase activity reduction – plasminogen activation absorbance, OD405, dose response (AID 1914); format: functional, Streptococcus pyogenes M1 GAS;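 further: secreted streptokinase activity via plasminogen activation per viability signal from cell pellet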
T2 sequence (P10520 whole entry): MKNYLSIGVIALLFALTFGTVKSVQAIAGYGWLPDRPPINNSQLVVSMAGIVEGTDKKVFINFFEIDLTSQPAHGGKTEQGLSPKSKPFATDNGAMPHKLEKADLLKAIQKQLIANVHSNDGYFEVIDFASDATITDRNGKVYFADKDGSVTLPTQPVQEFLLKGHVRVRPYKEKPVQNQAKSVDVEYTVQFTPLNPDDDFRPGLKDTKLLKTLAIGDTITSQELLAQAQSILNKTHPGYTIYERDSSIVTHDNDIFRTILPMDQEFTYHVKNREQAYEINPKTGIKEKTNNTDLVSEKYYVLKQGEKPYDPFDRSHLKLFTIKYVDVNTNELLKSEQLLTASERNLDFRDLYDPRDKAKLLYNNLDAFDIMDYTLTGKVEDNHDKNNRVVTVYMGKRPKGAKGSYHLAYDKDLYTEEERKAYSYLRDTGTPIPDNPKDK

Streptococcus = test: GAS UMAA2166 growth inhibition – luminescence, BacTiterGlo, counter-screen for streptokinase expression inhibitor project, dose response (AID 1915); format: functional, organism-based;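 further: potency for reduction of bacterial viability or growth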
[6] = target: FAD-linked sulfhydryl oxidase ALR (Homo sapiens, UniProt P55789); test: ALR-catalysed DTT oxidation blockers – biochemical, H2O2 detection, luminescence, cherry-pick, dose response (AID 493248)
[7] = target: T3, Rac GTPase-activating protein 1 (Homo sapiens, UniProt Q9H0H5); test: blockers of MgcRacGAP-driven Rac1 GTP hydrolysis – biochemical, ADP Hunter fluorescence, primary and confirmatory, confirmation (AID 624330); format: functional
T3 sequence (Q9H0H5 whole entry): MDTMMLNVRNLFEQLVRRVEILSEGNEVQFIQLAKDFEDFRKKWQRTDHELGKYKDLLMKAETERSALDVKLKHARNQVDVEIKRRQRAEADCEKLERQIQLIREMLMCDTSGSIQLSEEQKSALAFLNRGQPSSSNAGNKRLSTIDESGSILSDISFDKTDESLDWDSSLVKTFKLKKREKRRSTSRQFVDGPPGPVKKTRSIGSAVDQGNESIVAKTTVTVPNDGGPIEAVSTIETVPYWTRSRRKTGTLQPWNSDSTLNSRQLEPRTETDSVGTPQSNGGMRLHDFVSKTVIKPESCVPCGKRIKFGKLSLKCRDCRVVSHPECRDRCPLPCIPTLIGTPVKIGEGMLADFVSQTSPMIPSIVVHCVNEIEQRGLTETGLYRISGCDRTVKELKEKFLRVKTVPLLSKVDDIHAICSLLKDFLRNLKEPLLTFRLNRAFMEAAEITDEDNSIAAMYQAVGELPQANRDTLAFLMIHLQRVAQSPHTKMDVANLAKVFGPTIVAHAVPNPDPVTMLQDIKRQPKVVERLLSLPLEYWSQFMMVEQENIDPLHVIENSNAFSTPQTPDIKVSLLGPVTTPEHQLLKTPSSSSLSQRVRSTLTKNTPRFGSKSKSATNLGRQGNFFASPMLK

Cytochrome P450 1A2 = target: T4, Cytochrome P450 1A2 (Homo sapiens, UniProt P05177);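 further: PubChem cytochrome P450 panel assay, CYP1A2 panel member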
T4 sequence (P05177 whole entry): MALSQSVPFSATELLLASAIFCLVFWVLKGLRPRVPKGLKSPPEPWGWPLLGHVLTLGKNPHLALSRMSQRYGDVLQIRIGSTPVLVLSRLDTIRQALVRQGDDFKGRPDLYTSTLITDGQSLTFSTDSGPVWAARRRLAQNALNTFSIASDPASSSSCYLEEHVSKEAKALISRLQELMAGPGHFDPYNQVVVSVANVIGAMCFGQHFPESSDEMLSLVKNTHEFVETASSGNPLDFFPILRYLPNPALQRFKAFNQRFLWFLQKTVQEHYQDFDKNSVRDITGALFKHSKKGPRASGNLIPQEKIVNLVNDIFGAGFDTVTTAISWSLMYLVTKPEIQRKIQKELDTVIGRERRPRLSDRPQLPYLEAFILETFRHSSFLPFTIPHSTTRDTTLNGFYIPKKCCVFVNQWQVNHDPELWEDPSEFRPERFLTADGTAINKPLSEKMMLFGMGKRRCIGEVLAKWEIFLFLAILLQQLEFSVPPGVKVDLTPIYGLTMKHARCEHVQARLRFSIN

[8] = Trypanosoma cruzi growth suppression in host cells – NIH3T3 host cells, beta-gal luminescence, confirmation (AID 2044); format: functional, cell-based;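 further: intracellular parasites grown in NIH/3T3 mouse fibroblasts as host cells; luminescent beta-galactosidase reporter signal from transgenic T. cruzi replicating inside host cells; inhibitors lower the luminescence signal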
[9] = NIH3T3 cell viability loss – ATP luminescence, mouse fibroblasts, counter-screen, dose response (AID 2010); format: functional, cell-based;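 further: cells exposed to compound for about 90 hours before reading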

Cytochrome P450 2D6, sequence (P10635 whole entry): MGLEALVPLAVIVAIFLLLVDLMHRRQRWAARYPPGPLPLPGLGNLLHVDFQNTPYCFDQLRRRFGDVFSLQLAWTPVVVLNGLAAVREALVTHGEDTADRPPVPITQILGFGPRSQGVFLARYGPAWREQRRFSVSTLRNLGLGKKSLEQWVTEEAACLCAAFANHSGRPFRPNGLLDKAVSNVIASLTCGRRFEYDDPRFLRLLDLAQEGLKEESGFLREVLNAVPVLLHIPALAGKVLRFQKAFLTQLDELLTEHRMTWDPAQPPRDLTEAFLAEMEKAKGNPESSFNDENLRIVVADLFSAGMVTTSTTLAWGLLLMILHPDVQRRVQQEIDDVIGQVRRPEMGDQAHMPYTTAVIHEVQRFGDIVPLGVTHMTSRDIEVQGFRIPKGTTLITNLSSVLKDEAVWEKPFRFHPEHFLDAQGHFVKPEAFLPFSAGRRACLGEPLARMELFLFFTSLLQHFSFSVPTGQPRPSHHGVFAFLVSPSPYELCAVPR
Cytochrome P450 2C9, sequence (P11712 whole entry): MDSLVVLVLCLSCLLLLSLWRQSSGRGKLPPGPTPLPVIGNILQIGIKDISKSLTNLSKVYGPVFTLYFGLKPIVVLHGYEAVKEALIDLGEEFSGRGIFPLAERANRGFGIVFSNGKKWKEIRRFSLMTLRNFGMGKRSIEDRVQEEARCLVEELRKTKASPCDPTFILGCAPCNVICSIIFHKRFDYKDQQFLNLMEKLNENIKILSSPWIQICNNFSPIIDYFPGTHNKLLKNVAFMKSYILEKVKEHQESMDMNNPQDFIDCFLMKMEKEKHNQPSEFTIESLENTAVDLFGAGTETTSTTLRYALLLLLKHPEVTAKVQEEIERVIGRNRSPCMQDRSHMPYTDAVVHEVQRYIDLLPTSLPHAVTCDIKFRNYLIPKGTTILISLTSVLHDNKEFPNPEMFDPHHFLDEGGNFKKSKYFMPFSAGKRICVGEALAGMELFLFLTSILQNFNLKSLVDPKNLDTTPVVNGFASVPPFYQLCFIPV
Cytochrome P450 3A4, sequence (P08684 whole entry): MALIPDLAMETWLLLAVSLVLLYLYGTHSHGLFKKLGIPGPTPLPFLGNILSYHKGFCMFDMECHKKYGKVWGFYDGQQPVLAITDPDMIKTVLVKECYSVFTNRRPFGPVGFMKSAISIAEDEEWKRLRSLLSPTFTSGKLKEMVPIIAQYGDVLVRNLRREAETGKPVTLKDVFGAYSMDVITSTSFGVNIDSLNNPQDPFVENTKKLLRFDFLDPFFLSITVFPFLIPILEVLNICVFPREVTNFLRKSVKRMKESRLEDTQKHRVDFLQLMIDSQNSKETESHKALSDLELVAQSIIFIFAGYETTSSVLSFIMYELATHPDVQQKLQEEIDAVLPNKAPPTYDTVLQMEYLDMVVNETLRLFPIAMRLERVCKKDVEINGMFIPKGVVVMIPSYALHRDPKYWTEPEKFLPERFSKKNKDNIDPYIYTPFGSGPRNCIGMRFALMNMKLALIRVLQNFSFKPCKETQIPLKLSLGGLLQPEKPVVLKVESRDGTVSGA
FAD-linked sulfhydryl oxidase ALR, sequence (P55789 whole entry): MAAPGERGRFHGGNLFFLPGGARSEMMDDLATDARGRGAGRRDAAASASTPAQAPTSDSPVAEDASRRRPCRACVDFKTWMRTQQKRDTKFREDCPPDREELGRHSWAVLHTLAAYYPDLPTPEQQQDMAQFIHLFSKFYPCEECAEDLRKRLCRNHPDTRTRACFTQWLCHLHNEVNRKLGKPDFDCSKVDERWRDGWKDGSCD

For `CCCSc1nc(SCC(=O)NCc2ccccc2)c2c3c(sc2n1)COC(C)(CC)C3` (stereo not drawn), the AC50 (Cytochrome P450 3A4) was 7.08 µM (inconclusive).

For `COc1cccc(-c2cc(C(F)(F)F)nc(N3CCN(c4ccccc4)CC3)n2)c1`, the AC50 (Cytochrome P450 2C9) was 0.631 µM (inconclusive).

For `CC(=O)N1CCC2(CCCN(Cc3nccs3)C2)CC1`, the AC50 (Cytochrome P450 2D6) was 15.8 µM (inconclusive) and the AC50 (Cytochrome P450 3A4) was 39.8 µM (inconclusive).

In the case of `CCc1cc2c(SCC(=O)Nc3ccc(Cl)cn3)ncnc2s1`, the EC50 [1] is reported as 31.9 µM (active) and the EC50 [2] is reported as 71.3 µM (active).

With `CCCn1c(=O)c(C(=O)NNC(=O)c2ccc(Cl)cc2Cl)c(O)c2ccccc21` the EC50 [3] was 4.01 µM (active).

In the case of `COc1ccc(CNc2ccnc(-c3c(C)noc3C)n2)c(OC)c1`, the AC50 (Cytochrome P450 2D6) is reported as 39.8 µM (inconclusive) and the AC50 (Cytochrome P450 2C9) is reported as 1 µM (inconclusive).

In the case of `CCc1ccc2c(c1)[C@H]1OCC[C@H]1[C@@H](c1cccs1)N2`, the AC50 [4] is reported as 2.97 µM (active).

For `CC1(C)CC(=O)C(C2C3=C(CC(C)(C)CC3=O)Oc3c(Br)cc(Br)cc32)=C(O)C1` (stereo not drawn), the EC50 [5] was 4.66 µM (active), the EC50 (Streptokinase A) was 24.8 µM (active) and the EC50 (Streptococcus) was 12.2 µM (active). For the same compound, the EC50 [3] was 10.3 µM (active).

With `Cc1ccc(C)c2sc(NC(=O)c3ccc(N4C(=O)CCC4=O)cc3)nc12` the EC50 [3] was > 53 µM (inactive).

For `CCOC(=O)/C(=C/C=C1\Sc2ccccc2N1CC)C(C)=O`, the EC50 [3] was 11.5 µM (active).

With `Cc1ccc(N2CC(C(=O)Nc3cc(C)on3)CC2=O)cc1` (stereo not drawn) the AC50 (Cytochrome P450 3A4) was 22.4 µM (inconclusive) and the AC50 (Cytochrome P450 2C9) was 11.2 µM (inconclusive).

In the case of `COC(=O)c1sccc1-c1ccc(C(=O)Nc2cccc(Cl)c2)o1`, the AC50 (Cytochrome P450 3A4) is reported as 28.2 µM (inconclusive).

With `COc1ccc(CSC2=C(C#N)C(=O)NC3(CCCCC3)S2)cc1` the AC50 (Cytochrome P450 2C9) was 3.16 µM (inconclusive).

For `O=C(NCCc1ccccc1)c1cc(-c2ccccc2)c(N2CCOCC2)s1`, the AC50 [4] was 3.48 µM (active).

For `Cc1ccc(CSc2nnc(-c3ccncc3)n2CC2CCCO2)cc1` (stereo not drawn), the AC50 (Cytochrome P450 3A4) was 1.41 µM (inconclusive).

With `COc1ccc(CCNC(=O)CCN2C(=O)COc3ccc(C)cc32)cc1OC` the AC50 (Cytochrome P450 2D6) was 39.8 µM (inconclusive) and the AC50 (Cytochrome P450 2C9) was 28.2 µM (inconclusive).

With `C/C(=N\Nc1nc2ccccc2[nH]1)c1cccs1` the AC50 [6] was 0.02 µM (active) and the IC50 [7] was 26.8 µM (active).

With `CC(C)C[C@H](NC(=O)N1CCCCCC1)C(=O)N[C@H](Cc1cn(C)c2ccccc12)C(=O)N[C@H](Cc1ccccn1)C(=O)O` the AC50 (Cytochrome P450 1A2) was 39.8 µM (inconclusive) and the AC50 (Cytochrome P450 3A4) was 15.8 µM (inconclusive).

With `COc1ccc(CNc2ncnc3ccc(-c4cccc(C#N)c4)cc23)c(OC)c1` the AC50 (Cytochrome P450 2C9) was 0.0158 µM (inconclusive).

With `Cc1ccc(NC(=O)c2cc([N+](=O)[O-])ccc2NCc2cccnc2)cc1Cl` the EC50 [8] was 1.82 µM (active), the EC50 [9] was > 60 µM (not active) and the AC50 (Cytochrome P450 2D6) was 0.794 µM (inconclusive). For the same compound, the AC50 (Cytochrome P450 2C9) was 0.251 µM (inconclusive).
